In patent US20040110253A1, “Method for identifying MHC-presented peptide epitopes for T cells” (priority 2002, published 2004):
Ends that are not written are not given here.

What was measured:
[1] = test system: T cell 3DT-52.5; experiment: IL-2 production by T cell 3DT-52.5 in response to LKD8 cells plus synthetic peptide; format: cell-based, mouse; settings: synthetic peptide 100 ug/ml, D^d expressing Tap deficient cell line, twenty four hours
Description: FIG. 14B is a graph showing IL-2 produced by T cell […] in response to (1) P815 plus a bound unknown self-peptide and 2) LKD8, alone, or in the presence of the library derived peptide, TGPTRWCRL (SEQ ID NO:50), or a peptide derived from the spin protein, AGATRWCRL (SEQ ID NO:51).
DNA from a number of these clones was sequenced through the region encoding the peptide to determine the peptide sequence. Only one sequence was found, a 9mer, TGPTRWCRL (represented by SEQ ID NO:50; the underlined amino acids are in the positions varied in the library). […] A search of the mouse genome for proteins that contained peptides similar to the library peptide yielded a very similar sequence (AGATRWCRL; SEQ ID NO:51) intheprotein, spin(GenBank Accession No. BC011467). The library peptide and the spin peptide were synthesized and tested with a D^d expressing, Tap deficient, cell line for recognition by the original T cell (FIG. 14B). […] In the case of LKD8 the cell line was tested alone or in the presence of 100 ug/ml of the library derived peptide, TGPTRWCRL (SEQ ID NO:50), or a peptide derived from the spin protein, AGATRWCRL (SEQ ID NO:51). After twenty four hours the culture supernatants were assayed for IL-2. Without an added peptide, the D^d on this cell line was not recognized because the Tap deficiency prevents loading of endogenous peptides.

[2] = test system: YAe-62 TCR; experiment: Binding of fluorescent soluble YAe-62 αβTCR to SF9 cells displaying IA^b-peptide (flow cytometry); set-up: species or system mouse; settings: for YAe-62 TCR Binding (% of p3K): IA^b-peptide displayed on baculovirus-infected SF9 cells, fluorescent soluble αβTCR; for binding of YAe-62 αβTCR to IA^b-peptide complex (in words): insect cells displaying IA^b-peptide
Protocol: (§1) Next fluorescent, soluble αβTCR reagents were prepared for use in flow cytometry to detect insect cells displaying the appropriate MHCII/peptide combination. Fluorescent multivalent versions of the soluble αβTCR's of B3K-06 and YAe-62 bound to insect cells displaying the IA^b-p3K, but not a control MHCII-peptide combination (data not shown).
(§2) Insect cells displaying IA^b-p3K bound the αβTCR reagents very heterogeneously, probably due to heterogeneous expression of IA^b-p3K due to variations in the multiplicity of infection and the lack of synchrony in viral infection and expression. […] In this case, there was a direct correlation between the amount of surface IA^b-p3K expressed by an individual insect cell and the amount of αβTCR bound with cells bearing a particular level of IA^b-p3K binding the αβTCRs uniformly (data not shown). Therefore, comparing the two types of staining gave a useful tool to evaluate the relation between peptide sequence and the strength of αβTCR binding (see below).
(§3) A large number of SF9 insect cells were infected at an MOI of about one with baculovirus carrying the IA^b peptide library. After 3-4 days the cells were analyzed with fluorescent B3K-06 or YAe-62 soluble αβTCR, as described above. Fluorescent cells were sorted and cultured with fresh uninfected SF9 cells to create new infected cells for analysis and an enriched viral stock. This process was repeated 3 to 4 times. In each case, when no clear fluorescent population was apparent, the brightest 1% of the infected cells was sorted. In later rounds, the majority of the cells in a clearly distinguishable fluorescent population were sorted. Infected cells binding the B3K-06 αβTCR were apparent only after two rounds of enrichment but eventually yielded a population with uniform binding (data not shown). Infected cells that bound the YAe-62 αβTCR were detectable even with the initial library of viruses and enriched rapidly to yield a population with more heterogeneous levels of binding to the receptor (data not shown).
(§4) At the time of the final enrichment, single infected cells binding each of αβTCRs were sorted into individual wells of 96 well culture plates containing fresh SF9 cells in order to prepare clonal viral stocks. These stocks were used to infect fresh SF9 cells which were reanalyzed for binding to the appropriate αβTCR as described above. […] The majority of PCR fragments yielded a single unambiguous peptide sequence. These viruses were used to infect SF9 cells that expressed mouse ICAM and B7.1. The infected cells were used as APCs for either the B3K-06 or YAe-62 hybridoma with IL-2 production being a measure of IA^b-peptide recognition. Viruses expressing IA^b-peptide combinations that neither bound to the αβTCR nor stimulated the T cell hybridomas were used as negative controls and virus producing IA^b-p3K was used as the positive control. Results with a few representative virus clones are shown in FIG. 10A and 10B, and a summary of all of the results are shown in Table 1.

[3] = test system: YAe-62 hybridoma; experiment: IL-2 production by YAe-62 T cell hybridoma in response to IA^b-peptide presenting APCs; format: cell-based, mouse; settings: for IL-2 Production (units/ml): YAe-62 hybridoma, infected SF9 cells expressing mouse ICAM and B7.1 as APCs; for difference in the amount of IL-2 production stimulated by the two peptides: SEQ ID NO:39 versus SEQ ID NO:40
Description: The mouse T cell hybridoma, referred to as YAe-62, was chosen as a representative of broadly reactive T cells present in mice carrying transgenes and gene knockouts that lead to expression of MHC Class II that are almost completely occupied by a single peptide (Ignatowicz et al., 1996, Cell 84:521-529). The T cell was produced by immunization with p3K bound to IA^b in mice that express IA^b covalently linked to Eα, a dominant IA^b binding peptide derived from the MHC Class II IEα chain. YAe-62 responds to IA^b-p3K, but not to APCs lacking MHC Class II or to the IA^b-pEα APCs from the mouse from which it was derived. YAe-62 is also reactive against many cell types bearing IA^b in the absence of p3K. It also responds to APCs from a variety of mice carrying other alleles of IA. The inventors have postulated that this T cell responds mainly to the evolutionarily conserved regions of the IA molecule with less dependence on the peptide than seen with conventional T cells (Marrack et al., 2001, J. Immunol. 167:617-621). […] From the X-ray crystal structure of IA^b (Liu et al., 2002, supra) enough was known about how peptides bind to this MHC molecule to design a strategy in which the major MHC anchor amino acids of the peptide could be held constant and only five surface exposed amino acids need be varied in the library (FIG. 8).
as §4

[4] = test system: B3K-06 TCR; experiment: Binding of fluorescent soluble B3K-06 αβTCR to SF9 cells displaying IA^b-peptide (flow cytometry); set-up: species or system mouse; settings: for B3K-06 TCR Binding (% of p3K): IA^b-peptide displayed on baculovirus-infected SF9 cells, fluorescent soluble αβTCR
Protocol: as §1, §2, §3, §4

[5] = test system: B3K-06 hybridoma; experiment: IL-2 production by B3K-06 T cell hybridoma in response to IA^b-peptide presenting APCs; format: cell-based, mouse; settings: for IL-2 Production (units/ml): B3K-06 hybridoma, infected SF9 cells expressing mouse ICAM and B7.1 as APCs
Description: The hybridoma, B3K-06 was produced from wild-type C57BL/6 mice immunized conventionally with the peptide (Rees et al., 1999, supra). […] Also, as is commonly seen with conventional T cells, the interaction of the αβ TcR of B3K-06 with IA^b-p3K is very sensitive to changes in any of the peptide amino acids exposed on the surface of the IA^b-p3K complex. Mutation of positions Q2, K3, K5, N7 or K8 to alanine virtually eliminates recognition of p3K by B3K-06 (Liu et al., 2002, supra and additional data not shown).
as §4

Substance | YAe-62 TCR Binding (% of p3K) [2] | IL-2 Production (units/ml) [3] [units/ml] | other results
AGATRWCRL (listed as Mus musculus) [peptide derived from the spin protein] | – | – | restoration of the ability of LKD8 cells to stimulate the T cells (IL-2) [1]: restored the ability of the cells to stimulate the T cells
F E A A L A R A V P A V (FEAALARAVPAV; synthetic peptide motif) [SEQ ID NO:33] | 23.4 % of p3K | <3 | –
F E A E K A K A L T A V (FEAEKAKALTAV; synthetic peptide motif) [SEQ ID NO:28] | 49.6 % of p3K | 9 | –
F E A E R A R A A S A V (FEAERARAASAV; synthetic peptide motif) [SEQ ID NO:36] | 2.3 % of p3K | <3 | –
F E A F M A R A K A A V (FEAFMARAKAAV; synthetic peptide motif) [SEQ ID NO:21] | 107.5 % of p3K | 1256 | –
F E A F P A K A L R A V (FEAFPAKALRAV; synthetic peptide motif) [SEQ ID NO:30] | 38.5 % of p3K | 47 | –
F E A H T A L A P R A V (FEAHTALAPRAV) [SEQ ID NO:23] | 80.4 % of p3K | 6 | –
F E A L P A R A A A A V (FEALPARAAAAV) [SEQ ID NO:22] | 70.4 % of p3K | 681 | binding of YAe-62 αβTCR to IA^b-peptide complex (in words) [2]: nearly equally well; difference in the amount of IL-2 production stimulated by the two peptides [3]: 100 fold
F E A L S A K A N T A V (FEALSAKANTAV; synthetic peptide motif) [SEQ ID NO:31] | 33.3 % of p3K | <3 | –
F E A L Y A K A L T A V (FEALYAKALTAV; synthetic peptide motif) [SEQ ID NO:19] | 98.7 % of p3K | 1717 | –
F E A P Y A Q A P H A V (FEAPYAQAPHAV; synthetic peptide motif) [SEQ ID NO:38] | 1.3 % of p3K | <3 | –
F E A Q G A L A N I A V (FEAQGALANIAV; synthetic peptide motif) [pEα, negative control, reference compound] | 0.3 % of p3K | <3 | B3K-06 TCR Binding (% of p3K) [4]: 0.4 % of p3K; response of YAe-62 to IA^b-peptide APCs ([3]; APCs bearing IA^b-peptide): not; IL-2 Production (units/ml) [5]: <3 units/ml
F E A Q R A R A A R A V (FEAQRARAARAV; also: tethered to IA^b) [SEQ ID NO:16] | – | – | B3K-06 TCR Binding (% of p3K) [4]: 66.8 % of p3K; binding of B3K-06 αβTCR to IA^b-peptide complex (in words) ([4]; insect cells displaying IA^b-peptide): only slightly less well than did the IA^b-p3K complex; IL-2 Production (units/ml) [5]: 25 units/ml; stimulation of B3K-06 to produce IL-2 (in words) ([5]; bound to IA^b on B7/ICAM expressing SF9 APCs): able to stimulate B3K-06 to produce IL-2, but not nearly as well as did p3K
F E A Q V A H A L P A V (FEAQVAHALPAV; synthetic peptide motif) [SEQ ID NO:29] | 48.6 % of p3K | 32 | –
F E A R C A K A S T A V (FEARCAKASTAV; synthetic peptide motif) [SEQ ID NO:20] | 102.5 % of p3K | 467 | –
F E A R E A K A L A A V (FEAREAKALAAV; synthetic peptide motif) [SEQ ID NO:32] | 27.0 % of p3K | <3 | –
F E A R L A S A G K A V (FEARLASAGKAV; synthetic peptide motif) [SEQ ID NO:35] | 2.6 % of p3K | <3 | –
F E A R T A H A R N A V (FEARTAHARNAV; synthetic peptide motif) [SEQ ID NO:37] | 1.4 % of p3K | <3 | –
F E A S K A S A A V A V (FEASKASAAVAV; synthetic peptide motif) [SEQ ID NO:34] | 13.0 % of p3K | <3 | –
F E A S L A R A R S A V (FEASLARARSAV) [SEQ ID NO:24] | 76.2 % of p3K | 5 | –
F E A T T A R A L T A V (FEATTARALTAV; synthetic peptide motif) [SEQ ID NO:27] | 52.0 % of p3K | 6 | –
F E A Y T A R A R T A V [SEQ ID NO:25] (FEAYTARARTAV) | 58.3 % of p3K | 5 | –
F E A Y T A R A R T A V [SEQ ID NO:26] (FEAYTARARTAV; synthetic peptide motif) | 54.9 % of p3K | 7 | –
FEAQTAKARGAVD (synthetic peptide motif) | – | – | binding of YAe-62 αβTCR to IA^b-peptide complex (in words) [2]: nearly equally well; difference in the amount of IL-2 production stimulated by the two peptides [3]: 100 fold
